The values that follow come from patent publication EP2052721A1, “Use of carnosol for cartilage repair” (DSM IP Assets B.V., priority 2007, dated 2009).

The test system of one assay is SOX-5. Put plainly: Anabolic gene expression in normal human primary chondrocytes, quantitative real-time PCR (SOX-5). It is filed as cell-based. The settings on record: carnosol at 1 µmol/L; for activity at 1 µM: Chondrocyte, normal human chondrocytes (knee), differentiation medium. As to the method:
(§1) Influence of carnosol on the expression of genes involved in the build-up and break-down of cartilage. Carnosol of >= 95% purity prepared as disclosed in example 1 was used.
(§2) The effect of carnosol on the expression of human collagen, aggrecan and MMP genes was measured in vitro in normal human chondrocytes (derived from knee). Control experiments without carnosol were done concomitantly to compare the expression of these genes or proteins to that in un-stimulated cells. The effect of carnosol (at 1 µmol/L) on the expression of anabolic genes (see Table B) was measured in normal human chondrocytes obtained from the knee of healthy donors (HNAC-kn, Cambrex, #CC2250). These primary chondrocytes were passaged in vitro not more than 4 times, before being used for experiments. Cells were cultured in differentiation medium (Cambrex, #CC.3225) for 5 - 10 days. Total RNA was extracted from cultured cells and reverse-transcribed; expression levels of distinct genes were determined by quantitative real-time PCR as detailed by Richard et al. Mol. Nutr. Food Res. 49, 431-442, (2005).
(§3) Effect of carnosol on anabolic gene expression in normal human primary chondrocytes Numbers indicate the level of gene expression (in % of control-treated cells)
In general terms: Real-time PCR tracks product formation cycle by cycle.

A further assay has as its system Aggrecan. Put plainly: Anabolic gene expression in normal human primary chondrocytes, quantitative real-time PCR (aggrecan). Type of assay: cell-based. The settings on record: carnosol at 1 µmol/L; for activity at 1 µM: Chondrocyte, normal human chondrocytes (knee), differentiation medium. As to the method:
as §1, §2, §3

In assay [1] the test system is Collagen II. Kind of assay: Anabolic gene expression in normal human primary chondrocytes, quantitative real-time PCR (collagen II). Type of assay: cell-based. The note with it: carnosol at 1 µmol/L; for activity at 1 µM: Chondrocyte, normal human chondrocytes (knee), differentiation medium. How it is done: as §1, §2, §3
For assay [2], the system named is Collagen II. Kind of assay: Cellular collagen II production in chondrocytes, ELISA. It is filed as cell-based, human. The settings on record: 20 µmol/L carnosol; for Effect of carnosol on protein expression: 10 days of culture, collagen II, result in words. As to the method:
The increased build-up of the ECM has been directly shown by measuring the production of collagen II. To this aim, chondrocytes were cultured in differentiation medium containing 20 µmol/L carnosol for 10 days. Cellular collagen II was then quantified by enzyme linked immunosorbent assay (ELISA). […]

The subject of a further assay is Collagen I. Put plainly: Anabolic gene expression in normal human primary chondrocytes, quantitative real-time PCR (collagen I). Type of assay: cell-based. The note with it: carnosol at 1 µmol/L; for activity at 1 µM: Chondrocyte, normal human chondrocytes (knee), differentiation medium. How it is done:
as §1, §2, §3

The next assay relates to SOX-9. Put plainly: Anabolic gene expression in normal human primary chondrocytes, quantitative real-time PCR (SOX-9). The settings on record: carnosol at 1 µmol/L. Type of assay: cell-based. As to the method:
as §1, §2, §3

Where [3] appears, read: normal human chondrocytes, result in words.

Each structure is given as a SMILES string. Entries after “also recorded” stand apart in the source; their conditions may differ. Where two headings read alike, the source gives them in different places.

For `CC(C)c1cc2c(c(O)c1O)[C@@]13CCCC(C)(C)[C@@H]1C[C@@H]2OC3=O` [Carnosol, 2H-9,4a-(Epoxymethano)phenanthren-12-one], the activity at 1 µM in the assay with SOX-5 (120 h, 5 days culture, read-out: level of gene expression, SOX-5, 5 days culture) is 85%; with SOX-5 (240 h, 10 days culture, read-out: level of gene expression, SOX-5, 10 days culture), 126%; with Aggrecan (120 h, 5 days culture, read-out: level of gene expression, Aggrecan, 5 days culture), 139%; with Aggrecan (240 h, 10 days culture, read-out: level of gene expression, Aggrecan, 10 days culture), 97%; in the assay with Collagen II [1] (120 h, 5 days culture, read-out: level of gene expression, Collagen II, 5 days culture), 128%; in the assay with Collagen II [1] (240 h, 10 days culture, read-out: level of gene expression, Collagen II, 10 days culture), 189%. For the same molecule, the activity at 1 µM with Collagen I (120 h, 5 days culture, read-out: level of gene expression, Collagen I, 5 days culture) turned out to be 207%; in the assay with Collagen I (240 h, 10 days culture, read-out: level of gene expression, Collagen I, 10 days culture), 98%. Further, the “effect of carnosol on gene expression, SOX-5” value in the assay with SOX-5 (setting [3]) was “enhanced; also recorded: Increased”. For the same molecule, the “effect of carnosol on gene expression, Aggrecan” value in the assay on Aggrecan (setting [3]) is on record as “substantially increased”. In addition, the “effect of carnosol on gene expression, Collagen II” value with Collagen II [1] (setting [3]) was “substantially increased”. The “Effect of carnosol on protein expression” value in the assay on Collagen II [2] is on record as “Increased”; in the assay with Collagen II [2] (listed as carnosol), “significantly increased”. Also, the activity at 20 µM in the assay on Collagen II [2] (Homo sapiens, Chondrocyte, 240 h, 10 days of culture in differentiation medium, cellular collagen II by ELISA, vehicle = 100) amounted to 129%. The “effect of carnosol on gene expression, Collagen I” value in the assay with Collagen I (setting [3]) was “Increased”. Moreover, in the assay on SOX-9 (Chondrocyte, 120 h, normal human chondrocytes (knee), differentiation medium, 5 days culture, read-out: level of gene expression, SOX-9, 5 days culture), the mrna remaining at 1 µM is 112%. Also, the SOX-9 gene expression, % of control at 1 µM in the assay with SOX-9 (Chondrocyte, 240 h, normal human chondrocytes (knee), differentiation medium, 10 days culture, read-out: level of gene expression, SOX-9, 10 days culture) was 93%. Moreover, the “effect of carnosol on gene expression, SOX-9” value in the assay with SOX-9 (setting [3]) is “enhanced; also recorded: Increased”.
